Results taken from patent publication US10544147B2, “Purine inhibitors of human phosphatidylinositol 3-kinase delta” (MERCK SHARP & DOHME CORP., priority 2016, dated 2020).

What was measured:
[1] = target: PI3Kdelta (Homo sapiens (Human), UniProt O00329); assay: HTRF PI3K biochemical assay, delta isoform; settings: 0.3 nM enzyme, 100 uM ATP, 50 uM PIP2; form screened (neutral or TFA salt)
[2] = target: PI3Kalpha (Homo sapiens (Human), UniProt P42336); assay: HTRF PI3K biochemical assay, alpha isoform (selectivity versus delta); settings: ratio PI3K-alpha IC50 value/PI3K-delta IC50 value
PI3Kalpha, sequence (P42336 whole entry, canonical isoform): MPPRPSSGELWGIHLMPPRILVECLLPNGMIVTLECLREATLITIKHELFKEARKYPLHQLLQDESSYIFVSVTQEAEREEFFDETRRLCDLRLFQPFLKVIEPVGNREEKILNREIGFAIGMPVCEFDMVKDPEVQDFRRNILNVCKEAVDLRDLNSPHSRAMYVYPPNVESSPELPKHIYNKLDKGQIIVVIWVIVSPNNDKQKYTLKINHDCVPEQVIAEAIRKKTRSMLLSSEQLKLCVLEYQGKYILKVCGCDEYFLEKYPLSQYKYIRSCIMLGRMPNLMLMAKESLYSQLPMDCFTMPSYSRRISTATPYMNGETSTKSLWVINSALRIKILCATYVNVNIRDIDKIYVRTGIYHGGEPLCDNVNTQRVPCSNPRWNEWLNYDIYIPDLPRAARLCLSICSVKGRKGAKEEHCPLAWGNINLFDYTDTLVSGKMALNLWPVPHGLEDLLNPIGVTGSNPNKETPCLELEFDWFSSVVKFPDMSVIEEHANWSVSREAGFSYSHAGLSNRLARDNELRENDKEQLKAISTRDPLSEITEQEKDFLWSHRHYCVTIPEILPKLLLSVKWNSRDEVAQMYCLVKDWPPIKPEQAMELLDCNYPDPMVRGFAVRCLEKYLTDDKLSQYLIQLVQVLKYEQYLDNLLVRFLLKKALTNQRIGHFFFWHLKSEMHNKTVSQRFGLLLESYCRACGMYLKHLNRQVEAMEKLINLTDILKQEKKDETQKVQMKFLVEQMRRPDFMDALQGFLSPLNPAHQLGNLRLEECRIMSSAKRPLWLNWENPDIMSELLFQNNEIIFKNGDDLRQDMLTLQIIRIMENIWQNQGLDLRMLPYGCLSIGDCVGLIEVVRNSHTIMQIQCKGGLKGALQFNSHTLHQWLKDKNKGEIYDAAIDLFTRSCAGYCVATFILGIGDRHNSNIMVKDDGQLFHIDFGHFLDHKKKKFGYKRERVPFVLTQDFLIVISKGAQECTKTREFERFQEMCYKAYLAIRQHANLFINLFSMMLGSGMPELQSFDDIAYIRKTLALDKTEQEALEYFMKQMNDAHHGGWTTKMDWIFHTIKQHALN
PI3Kalpha, sequence (P27986 whole entry partner, canonical isoform): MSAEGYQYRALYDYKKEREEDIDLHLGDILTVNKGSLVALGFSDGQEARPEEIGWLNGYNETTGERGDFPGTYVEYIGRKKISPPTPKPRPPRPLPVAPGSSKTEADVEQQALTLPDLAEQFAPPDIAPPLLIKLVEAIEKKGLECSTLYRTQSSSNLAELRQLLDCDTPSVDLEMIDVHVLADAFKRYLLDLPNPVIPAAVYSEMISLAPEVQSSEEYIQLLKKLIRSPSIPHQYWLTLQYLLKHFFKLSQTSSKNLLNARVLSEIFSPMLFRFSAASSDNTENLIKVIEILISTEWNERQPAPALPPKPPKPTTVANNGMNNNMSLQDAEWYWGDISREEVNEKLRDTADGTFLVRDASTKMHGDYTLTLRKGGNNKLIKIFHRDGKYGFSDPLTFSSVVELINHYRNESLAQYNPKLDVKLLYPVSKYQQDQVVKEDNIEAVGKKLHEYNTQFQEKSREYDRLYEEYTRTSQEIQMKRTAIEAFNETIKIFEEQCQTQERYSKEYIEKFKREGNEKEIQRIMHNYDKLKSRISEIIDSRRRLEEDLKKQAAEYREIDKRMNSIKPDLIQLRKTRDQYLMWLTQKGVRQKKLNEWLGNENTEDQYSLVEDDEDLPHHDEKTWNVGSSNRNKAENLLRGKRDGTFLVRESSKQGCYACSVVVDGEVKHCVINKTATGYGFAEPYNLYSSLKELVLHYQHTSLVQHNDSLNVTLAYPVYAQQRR

PI3Kdelta, sequence (O00329 whole entry, canonical isoform): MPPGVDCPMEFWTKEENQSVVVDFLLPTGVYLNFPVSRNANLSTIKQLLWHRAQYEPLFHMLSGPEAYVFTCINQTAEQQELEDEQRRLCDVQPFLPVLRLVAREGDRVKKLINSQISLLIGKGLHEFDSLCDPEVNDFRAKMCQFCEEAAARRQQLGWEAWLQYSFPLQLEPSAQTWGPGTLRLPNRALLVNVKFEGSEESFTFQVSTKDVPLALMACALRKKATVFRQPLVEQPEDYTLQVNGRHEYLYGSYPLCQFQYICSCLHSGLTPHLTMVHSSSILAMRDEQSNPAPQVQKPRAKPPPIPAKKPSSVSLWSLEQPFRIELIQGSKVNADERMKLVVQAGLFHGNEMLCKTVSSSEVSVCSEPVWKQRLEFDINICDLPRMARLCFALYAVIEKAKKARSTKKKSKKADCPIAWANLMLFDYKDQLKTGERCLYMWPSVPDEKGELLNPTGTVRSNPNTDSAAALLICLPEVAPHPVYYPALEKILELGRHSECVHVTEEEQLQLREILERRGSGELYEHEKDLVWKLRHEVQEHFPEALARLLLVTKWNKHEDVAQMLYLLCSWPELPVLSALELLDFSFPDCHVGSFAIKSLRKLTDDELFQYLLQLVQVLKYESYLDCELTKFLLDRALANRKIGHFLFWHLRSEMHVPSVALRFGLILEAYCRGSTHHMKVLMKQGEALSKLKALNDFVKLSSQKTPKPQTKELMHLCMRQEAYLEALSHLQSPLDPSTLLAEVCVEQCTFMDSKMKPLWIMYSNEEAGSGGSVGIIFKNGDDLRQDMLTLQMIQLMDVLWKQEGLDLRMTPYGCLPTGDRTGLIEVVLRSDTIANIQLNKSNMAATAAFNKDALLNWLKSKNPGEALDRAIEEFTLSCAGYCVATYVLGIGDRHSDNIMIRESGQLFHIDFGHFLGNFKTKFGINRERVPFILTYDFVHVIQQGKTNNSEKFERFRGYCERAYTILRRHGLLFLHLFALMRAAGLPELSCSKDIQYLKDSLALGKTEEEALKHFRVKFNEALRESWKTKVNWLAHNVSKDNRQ
PI3Kdelta, sequence (P27986 whole entry partner, canonical isoform): as the sequence (P27986 whole entry partner, canonical isoform) above

SMILES | IC50 [1] | Relative Selectivity versus PI3Kalpha [2]
CCn1c(-c2cnc(C)nc2)nc2c(-c3ccc4c(c3)C(C)(CC)C(=O)N4)ncnc21 (single isomer, unassigned) [Compound 1-38, (R or S)-3-ethyl-5-(9-ethyl-8-(2-methylpyrimidin-5-yl)-9H-purin-6-yl)-3-methylindolin-2-one] | 80 nM | >10
CCn1c(-c2cnc(C)nc2)nc2c(-c3ccc4c(c3)C3(CCCN3C(=O)C3CC3)C(=O)N4C(C)C)ncnc21 (single isomer, unassigned) [Compound 3-10, (R or S)-1′-(cyclopropanecarbonyl)-5-(9-ethyl-8-(2-methylpyrimidin-5-yl)-9H-purin-6-yl)-1-isopropylspiro[indoline-3,2′-pyrrolidin]-2-one] | 3 nM | >10
Cc1ncc(-c2nc3c(-c4ccc5c(c4)C4(CCCN4C(C)C)C(=O)N5)ncnc3n2C)cn1 (single isomer, unassigned) [Compound 3-14, (R or S)-1′-isopropyl-5-(9-methyl-8-(2-methylpyrimidin-5-yl)-9H-purin-6-yl)spiro[indoline-3,2′-pyrrolidin]-2-one] | 2 nM | >10
CCn1c(-c2cnc(C)nc2)nc2c(-c3ccc4oc(=O)n(C(C)C5CC5)c4c3)ncnc21 (single isomer, unassigned) [Compound 5-6, (R or S)-3-(1-cyclopropylethyl)-5-[9-ethyl-8-(2-methylpyrimidin-5-yl)-9H-purin-6-yl]-1,3-benzoxazol-2(3H)-one] | 5 nM | >10
CCn1c(-c2cnc(C)nc2)nc2c(-c3ccc4c(c3)C(C)(N3CC(C)(C#N)C3)C(=O)N4)ncnc21 (single isomer, unassigned) [Compound 2-5, (R or S)-1-{5-[9-ethyl-8-(2-methylpyrimidin-5-yl)-9H-purin-6-yl]-3-methyl-2-oxo-2,3-dihydro-1H-indol-3-yl}-3-methylazetidine-3-carbonitrile] | 73 nM | >10
CCn1c(-c2cnc(C)nc2)nc2c(-c3ccc4c(c3)C(C)(N[C@H](C)C3CCC3)C(=O)N4)ncnc21 (mixture of isomers) [Compound 2-17, 3-{[(1R)-1-cyclobutylethyl]amino}-5-[9-ethyl-8-(2-methylpyrimidin-5-yl)-9H-purin-6-yl]-3(R and S)-methyl-1,3-dihydro-2H-indol-2-one] | 10 nM | >10
CCn1c(-c2cnc(C)nc2)nc2c(-c3ccc4c(c3)C(C)(OCC(C)(C)F)C(=O)N4)ncnc21 (single isomer, unassigned) [Compound 2-56, (R or S)-5-(9-ethyl-8-(2-methylpyrimidin-5-yl)-9H-purin-6-yl)-3-(2-fluoro-2-methylpropoxy)-3-methylindolin-2-one] | 3 nM | >10
CCn1c(-c2cnc(C)nc2)nc2c(-c3ccc4c(c3)C(C)(N3CC(C)(O)C3)C(=O)N4)ncnc21 (single isomer, unassigned) [Compound 2-80, (R or S)-5-(9-ethyl-8-(2-methylpyrimidin-5-yl)-9H-purin-6-yl)-3-(3-hydroxy-3-methylazetidin-1-yl)-3-methylindolin-2-one] | 7 nM | >10
CCN1CCCC12C(=O)Nc1ccc(-c3ncnc4c3nc(-c3cnc(C)nc3)n4C)cc12 (single isomer, unassigned) [Compound 3-28, (R or S)-1′-ethyl-5-(9-methyl-8-(2-methylpyrimidin-5-yl)-9H-purin-6-yl)spiro[indoline-3,2′-pyrrolidin]-2-one] | 99 nM | >10
CCn1c(-c2cnc(C)nc2)nc2c(-c3ccc4c(c3)C(Cc3ccccc3)NC4=O)ncnc21 (single isomer, unassigned) [Compound 4-9, (R or S)-3-benzyl-5-[9-ethyl-8-(2-methylpyrimidin-5-yl)-9H-purin-6-yl]-2,3-dihydro-1H-isoindol-1-one] | 22 nM | >10
CCN1CCCC12C(=O)Nc1ccc(-c3ncnc4c3nc(-c3cnc(C)nc3)n4CC)cc12 (single isomer, unassigned) [Compound 3-26, (R or S)-1′-ethyl-5-(9-ethyl-8-(2-methylpyrimidin-5-yl)-9H-purin-6-yl)spiro[indoline-3,2′-pyrrolidin]-2-one] | 29 nM | >10
CCn1c(-c2cnc(C)nc2)nc2c(-c3ccc4c(c3)C(C)(N3CCOCC35CCC5)C(=O)N4)ncnc21 (racemic) [Compound 2-23, (R and S)-5-[9-ethyl-8-(2-methylpyrimidin-5-yl)-9H-purin-6-yl]-3-methyl-3-(8-oxa-5-azaspiro[3.5]non-5-yl)-1,3-dihydro-2H-indol-2-one] | 7 nM | >10
CCn1c(-c2cnc(C)nc2)nc2c(-c3ccc4c(c3)C3(CCCN3S(C)(=O)=O)C(=O)N4)ncnc21 (single isomer, unassigned) [Compound 3-19, (R or S)-5-(9-ethyl-8-(2-methylpyrimidin-5-yl)-9H-purin-6-yl)-1′-(methylsulfonyl)spiro[indoline-3,2′-pyrrolidin]-2-one] | 0.7 nM | >10
